Data: patent publication US6358885B1, “Substituted phenylheterocyclic herbicides” (Mississippi State University, priority 1992, dated 2002)

Legend:
Experiment in all cases: Test B preemergence/postemergence greenhouse plant response rating 0 to 10
barley = format: in vivo, Hordeum vulgare; details: for Plant response rating, Barley: 0 to 10 scale
Summary of the method: (§1)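 Planted seeds are treated preemergence with compound dissolved in a non-phytotoxic solvent, while postemergence applications go onto plants of two to eighteen cm. Plants stay in the greenhouse twelve to sixteen days and are then rated visually relative to controls.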

barnyardgrass = format: in vivo, Echinochloa crus-galli; details: for Plant response rating, Barnyardgrass: 0 to 10 scale
Summary of the method: as §1

bedstraw = format: in vivo, Galium aparine; details: for Plant response rating, Bedstraw: 0 to 10 scale
Summary of the method: as §1

blackgrass = format: in vivo, Alopecurus myosuroides; details: for Plant response rating, Blackgrass: 0 to 10 scale
Summary of the method: as §1

cheatgrass = format: in vivo, Bromus secalinus; details: for Plant response rating, Cheatgrass: 0 to 10 scale
Summary of the method: as §1

chickweed = format: in vivo, Stellaria media; details: for Plant response rating, Chickweed: 0 to 10 scale
Summary of the method: as §1

cocklebur = format: in vivo, Xanthium pensylvanicum; details: for Plant response rating, Cocklebur: 0 to 10 scale
Summary of the method: as §1

corn = format: in vivo, Zea mays; details: for Plant response rating, Corn: 0 to 10 scale
Summary of the method: as §1

cotton = format: in vivo, Gossypium hirsutum; details: for Plant response rating, Cotton: 0 to 10 scale
Summary of the method: as §1

crabgrass = format: in vivo, Digitaria spp.; details: for Plant response rating, Crabgrass: 0 to 10 scale
Summary of the method: as §1

giant foxtail = format: in vivo, Setaria faberii; details: for Plant response rating, Giant foxtail: 0 to 10 scale
Summary of the method: as §1

lambsquarters = format: in vivo, Chenopodium album; details: for Plant response rating, Lambsquarter: 0 to 10 scale
Summary of the method: as §1

morningglory = format: in vivo, Ipomoea hederacea; details: for Plant response rating, Morningglory: 0 to 10 scale
Summary of the method: as §1

rape = format: in vivo, Brassica napus; details: for Plant response rating, Rape: 0 to 10 scale
Summary of the method: as §1

rice = format: in vivo, Oryza sativa; details: for Plant response rating, Rice: 0 to 10 scale
Summary of the method: as §1

sorghum = format: in vivo, Sorghum bicolor; details: for Plant response rating, Sorghum: 0 to 10 scale
Summary of the method: as §1

soybean = format: in vivo, Glycine max; details: for Plant response rating, Soybean: 0 to 10 scale
Summary of the method: as §1

sugar beet = format: in vivo, Beta vulgaris; details: for Plant response rating, Sugar beet: 0 to 10 scale
Summary of the method: as §1

velvetleaf = format: in vivo, Abutilon theophrasti; details: for Plant response rating, Velvetleaf: 0 to 10 scale
Summary of the method: as §1

wheat = format: in vivo, Triticum aestivum; details: for Plant response rating, Wheat: 0 to 10 scale
Summary of the method: as §1

wild buckwheat = format: in vivo, Polygonum convolvulus; details: for Plant response rating, Wild buckwheat: 0 to 10 scale
Summary of the method: as §1

wild oat = format: in vivo, Avena fatua; details: for Plant response rating, Wild oat: 0 to 10 scale
Summary of the method: as §1

purple nutsedge = format: in vivo, Cyperus rotundus; details: for Plant response rating, Nutsedge: 0 to 10 scale
Summary of the method: as §1

CC(C)(C)C(=O)COc1cc(-c2nn3c(c2Cl)CCCC3)c(Cl)cc1Cl [Compound 77]
4: Plant response rating, Barnyardgrass (barnyardgrass; POSTEMERGENCE, Rate 50 g/ha) | Plant response rating, Bedstraw (bedstraw; POSTEMERGENCE, Rate 50 g/ha) | Plant response rating, Rice (rice; POSTEMERGENCE, Rate 50 g/ha)
1: Plant response rating (0 to 10 scale), Chickweed (chickweed; PREEMERGENCE, Rate 200 g/ha) | Plant response rating (0 to 10 scale), Cocklebur (cocklebur; PREEMERGENCE, Rate 200 g/ha) | Plant response rating, Wild oat (wild oat; POSTEMERGENCE, Rate 50 g/ha)
5: Plant response rating, Bedstraw (bedstraw; Rate 200 g/ha, POSTEMERGENCE) | Plant response rating (0 to 10 scale), Cheatgrass (cheatgrass; PREEMERGENCE, Rate 200 g/ha) | Plant response rating, Crabgrass (crabgrass; POSTEMERGENCE, Rate 50 g/ha) | Plant response rating, Giant foxtail (giant foxtail; POSTEMERGENCE, Rate 50 g/ha) | Plant response rating, Sorghum (sorghum; POSTEMERGENCE, Rate 50 g/ha) | Plant response rating, Sorghum (sorghum; Rate 200 g/ha, POSTEMERGENCE) | Plant response rating, Soybean (soybean; POSTEMERGENCE, Rate 50 g/ha) | Plant response rating, Wheat (wheat; Rate 200 g/ha, POSTEMERGENCE)
6: Plant response rating, Crabgrass (crabgrass; Rate 200 g/ha, POSTEMERGENCE) | Plant response rating, Giant foxtail (giant foxtail; Rate 200 g/ha, POSTEMERGENCE) | Plant response rating, Rape (rape; POSTEMERGENCE, Rate 50 g/ha) | Plant response rating (0 to 10 scale), Rape (rape; PREEMERGENCE, Rate 200 g/ha) | Plant response rating, Rice (rice; Rate 200 g/ha, POSTEMERGENCE)
8: Plant response rating, Barnyardgrass (barnyardgrass; Rate 200 g/ha, POSTEMERGENCE) | Plant response rating, Morningglory (morningglory; POSTEMERGENCE, Rate 50 g/ha) | Plant response rating, Wild buckwheat (wild buckwheat; PREEMERGENCE, Rate 50 g/ha)
2: Plant response rating, Barley (barley; POSTEMERGENCE, Rate 50 g/ha) | Plant response rating, Blackgrass (blackgrass; POSTEMERGENCE, Rate 50 g/ha) | Plant response rating, Blackgrass (blackgrass; PREEMERGENCE, Rate 50 g/ha) | Plant response rating, Cheatgrass (cheatgrass; POSTEMERGENCE, Rate 50 g/ha) | Plant response rating, Chickweed (chickweed; POSTEMERGENCE, Rate 50 g/ha) | Plant response rating, Crabgrass (crabgrass; PREEMERGENCE, Rate 50 g/ha) | Plant response rating, Giant foxtail (giant foxtail; PREEMERGENCE, Rate 50 g/ha) | Plant response rating (0 to 10 scale), Giant foxtail (giant foxtail; PREEMERGENCE, Rate 200 g/ha) | Plant response rating, Wheat (wheat; POSTEMERGENCE, Rate 50 g/ha) | Plant response rating, Nutsedge (purple nutsedge; POSTEMERGENCE, Rate 50 g/ha) | Plant response rating, Nutsedge (purple nutsedge; Rate 200 g/ha, POSTEMERGENCE)
7: Plant response rating, Cocklebur (cocklebur; POSTEMERGENCE, Rate 50 g/ha) | Plant response rating, Rape (rape; Rate 200 g/ha, POSTEMERGENCE) | Plant response rating, Soybean (soybean; Rate 200 g/ha, POSTEMERGENCE) | Plant response rating (0 to 10 scale), Velvetleaf (velvetleaf; PREEMERGENCE, Rate 200 g/ha)
3: Plant response rating, Barley (barley; Rate 200 g/ha, POSTEMERGENCE) | Plant response rating (0 to 10 scale), Barnyardgrass (barnyardgrass; PREEMERGENCE, Rate 200 g/ha) | Plant response rating, Bedstraw (bedstraw; PREEMERGENCE, Rate 50 g/ha) | Plant response rating (0 to 10 scale), Blackgrass (blackgrass; PREEMERGENCE, Rate 200 g/ha) | Plant response rating, Blackgrass (blackgrass; Rate 200 g/ha, POSTEMERGENCE) | Plant response rating, Cheatgrass (cheatgrass; PREEMERGENCE, Rate 50 g/ha) | Plant response rating, Cheatgrass (cheatgrass; Rate 200 g/ha, POSTEMERGENCE) | Plant response rating, Chickweed (chickweed; Rate 200 g/ha, POSTEMERGENCE) | Plant response rating, Corn (corn; POSTEMERGENCE, Rate 50 g/ha) | Plant response rating, Corn (corn; Rate 200 g/ha, POSTEMERGENCE) | Plant response rating (0 to 10 scale), Crabgrass (crabgrass; PREEMERGENCE, Rate 200 g/ha) | Plant response rating, Sugar beet (sugar beet; PREEMERGENCE, Rate 50 g/ha) | Plant response rating (0 to 10 scale), Sugar beet (sugar beet; PREEMERGENCE, Rate 200 g/ha) | Plant response rating, Velvetleaf (velvetleaf; PREEMERGENCE, Rate 50 g/ha) | Plant response rating, Wild oat (wild oat; Rate 200 g/ha, POSTEMERGENCE)
0: Plant response rating, Barley (barley; PREEMERGENCE, Rate 50 g/ha) | Plant response rating (0 to 10 scale), Barley (barley; PREEMERGENCE, Rate 200 g/ha) | Plant response rating, Barnyardgrass (barnyardgrass; PREEMERGENCE, Rate 50 g/ha) | Plant response rating, Chickweed (chickweed; PREEMERGENCE, Rate 50 g/ha) | Plant response rating, Cocklebur (cocklebur; PREEMERGENCE, Rate 50 g/ha) | Plant response rating, Corn (corn; PREEMERGENCE, Rate 50 g/ha) | Plant response rating (0 to 10 scale), Corn (corn; PREEMERGENCE, Rate 200 g/ha) | Plant response rating, Cotton (cotton; PREEMERGENCE, Rate 50 g/ha) | Plant response rating (0 to 10 scale), Cotton (cotton; PREEMERGENCE, Rate 200 g/ha) | Plant response rating, Morningglory (morningglory; PREEMERGENCE, Rate 50 g/ha) | Plant response rating (0 to 10 scale), Morningglory (morningglory; PREEMERGENCE, Rate 200 g/ha) | Plant response rating, Rape (rape; PREEMERGENCE, Rate 50 g/ha) | Plant response rating, Rice (rice; PREEMERGENCE, Rate 50 g/ha) | Plant response rating (0 to 10 scale), Rice (rice; PREEMERGENCE, Rate 200 g/ha) | Plant response rating, Sorghum (sorghum; PREEMERGENCE, Rate 50 g/ha) | Plant response rating (0 to 10 scale), Sorghum (sorghum; PREEMERGENCE, Rate 200 g/ha) | Plant response rating, Soybean (soybean; PREEMERGENCE, Rate 50 g/ha) | Plant response rating (0 to 10 scale), Soybean (soybean; PREEMERGENCE, Rate 200 g/ha) | Plant response rating, Wheat (wheat; PREEMERGENCE, Rate 50 g/ha) | Plant response rating (0 to 10 scale), Wheat (wheat; PREEMERGENCE, Rate 200 g/ha) | Plant response rating, Wild oat (wild oat; PREEMERGENCE, Rate 50 g/ha) | Plant response rating (0 to 10 scale), Wild oat (wild oat; PREEMERGENCE, Rate 200 g/ha) | Plant response rating, Nutsedge (purple nutsedge; PREEMERGENCE, Rate 50 g/ha) | Plant response rating (0 to 10 scale), Nutsedge (purple nutsedge; PREEMERGENCE, Rate 200 g/ha)
10: Plant response rating (0 to 10 scale), Bedstraw (bedstraw; PREEMERGENCE, Rate 200 g/ha) | Plant response rating, Cotton (cotton; POSTEMERGENCE, Rate 50 g/ha) | Plant response rating, Cotton (cotton; Rate 200 g/ha, POSTEMERGENCE) | Plant response rating, Lambsquarter (lambsquarters; POSTEMERGENCE, Rate 50 g/ha) | Plant response rating, Lambsquarter (lambsquarters; PREEMERGENCE, Rate 50 g/ha) | Plant response rating (0 to 10 scale), Lambsquarter (lambsquarters; PREEMERGENCE, Rate 200 g/ha) | Plant response rating, Lambsquarter (lambsquarters; Rate 200 g/ha, POSTEMERGENCE) | Plant response rating, Sugar beet (sugar beet; POSTEMERGENCE, Rate 50 g/ha) | Plant response rating, Sugar beet (sugar beet; Rate 200 g/ha, POSTEMERGENCE) | Plant response rating, Velvetleaf (velvetleaf; POSTEMERGENCE, Rate 50 g/ha) | Plant response rating, Velvetleaf (velvetleaf; Rate 200 g/ha, POSTEMERGENCE) | Plant response rating, Wild buckwheat (wild buckwheat; POSTEMERGENCE, Rate 50 g/ha) | Plant response rating, Wild buckwheat (wild buckwheat; Rate 200 g/ha, POSTEMERGENCE)
9: Plant response rating, Cocklebur (cocklebur; Rate 200 g/ha, POSTEMERGENCE) | Plant response rating, Morningglory (morningglory; Rate 200 g/ha, POSTEMERGENCE) | Plant response rating (0 to 10 scale), Wild buckwheat (wild buckwheat; PREEMERGENCE, Rate 200 g/ha)
